Experimental data taken from patent publication US20230310356A1, “COMPOSITION FOR PREVENTING, AMELIORATING, OR TREATING BRAIN DAMAGE AND MILD COGNITIVE IMPAIRMENT COMPRISING GLUTAMINE AS EFFECTIVE COMPONENT” (INDUSTRY-ACADEMIC COOPERATION FOUNDATION GYEONGSANG …, priority 2020, published 2023).

Key:
corticosterone = assay: Change in plasma corticosterone level after CIS and glutamine supplementation; type: in vivo, mouse; conditions: STR+Gln vs STR; glutamine 150 mg/kg of feed
Protocol: In the present invention, C57BL/6 male mice (7-weeks old, KOATECH, South Korea) were kept under standard conditions (i.e., temperature of 22 to 24° C., humidity of 50 to 70%, and 12-hour light/dark cycle with lighting on 6 AM), and the animals were allowed to have free access to diets and water. The animals used for the present invention were handled according to the protocol (GNU-161128-M0068) acknowledged by Gyeongsang National University Institutional Animal Care and Use Committee (GNU IACUC), which follows the guidelines of National Institutes of Health (NIH, Bethesda, MD, USA). Control (CTL) is a group which received normal diet (common diet with nutritional balance) without any stress, CTL+Gln group is a normal diet group supplemented with glutamine (150 mg/kg of feed) and without any stress, STR is a normal diet group under stress, and STR+Gln group is a normal diet group supplemented with glutamine (150 mg/kg of feed) under stress. The stress group (STR) was individually brought by force to a restrainer for 2 hours every day (i.e., between 2 PM and 4 PM) so that the animals are applied with chronic immobilization stress for 15 days.

[1] = tested on: C57BL/6 male mice applied with chronic immobilization stress; assay: Behavior analysis by ORT and OLT after CIS and glutamine supplementation; type: in vivo, mouse; conditions: STR+Gln vs STR; glutamine 150 mg/kg of feed, after 15 days stress
Protocol: Control (CTL) is a group which received normal diet (common diet with nutritional balance) without any stress, CTL+Gln group is a normal diet group supplemented with glutamine (150 mg/kg of feed) and without any stress, STR is a normal diet group under stress, and STR+Gln group is a normal diet group supplemented with glutamine (150 mg/kg of feed) under stress. The stress group (STR) was individually brought by force to a restrainer for 2 hours every day (i.e., between 2 PM and 4 PM) so that the animals are applied with chronic immobilization stress for 15 days. By using the cohorts of Example 1, behavior analysis was carried out. After applying the stress for 15 days, behavior analysis was immediately carried out. ORT includes three separate sessions, i.e., habituation, familiarization, and test. During 2 days of the habituation, the animals were allowed to stay in an empty open space for 10 minutes a day. After the habituation, they were subjected to familiarization by placing two identical objects in the open space. Mice of each test group were allowed to explore freely the object for 10 minutes. […] Discrimination index (DI) in ORT was then calculated according to the following formula (1). […] Discrimination index (DI) in OLT was then calculated according to the following formula (2). […]

normal mouse = assay: Cognitive ability of normal mouse after oral administration of glutamine (Y-maze, ORT, OLT); type: in vivo
Protocol: To determine if there is also an effect of orally administered glutamine on improving the cognitive ability of a normal mouse, 2 hours later glutamine administration, any improvement in cognitive ability was examined. The cognitive ability was tested by using Y-maze for testing short-term memory and ORT and OLT (object location recognition test) for testing long-term memory. Y-maze: To a Y-shaped maze consisting of 3 arms that are spread at 120° angle from each other and designated as A, B, and C, respectively, a mouse was introduced. Then, the spontaneous alternation indicating an entrance into different arms, 3 times consecutively, was applied to the following Formula (4) and the calculation was made (FIG. 10A). Three consecutive spontaneous alternation=[(Number of consecutive entry into different arms)/(Total number of arm entries−2)]×100 Formula (4) ORT/OLT: ORT was carried out for 10 minutes as described above, and, 24 hours later, one of the objects was translocated to a new spot and the animal was allowed to explore again for 5 minutes (FIG. 10B).

PSD-95 and synaptophysin = assay: Synaptic puncta by co-localization of PSD-95 and synaptophysin after CIS and glutamine supplementation; type: in vivo, mouse; conditions: infralimbic cortex and hippocampal CA1 region (FIGS. 5E and 6F)
Protocol: Control (CTL) is a group which received normal diet (common diet with nutritional balance) without any stress, CTL+Gln group is a normal diet group supplemented with glutamine (150 mg/kg of feed) and without any stress, STR is a normal diet group under stress, and STR+Gln group is a normal diet group supplemented with glutamine (150 mg/kg of feed) under stress. The stress group (STR) was individually brought by force to a restrainer for 2 hours every day (i.e., between 2 PM and 4 PM) so that the animals are applied with chronic immobilization stress for 15 days. Twenty-four hours after applying the last stress, the mouse was anesthetized with avertin, and perfused with PBS (pH 7.4) and 4% formaldehyde. After that, the brain was removed, fixed, and cut to a thickness with 40 μm. It was then incubated overnight after the addition of each antibody, nNOS (sc-5302, 200 μg/ml, Santa Cruz, Dallas, TX, USA, 1:50), iNOS (sc-7271, 200 μg/ml, Santa Cruz, 1:20), p47phox (sc-17845, 200 μg/ml, Santa Cruz, 1:20), p67phox (15551-1-AP, 43 μg/150 μl, Proteintech, Rosemont, IL, USA, 1:100), PSD-95 (postsynaptic density-95) (ab12093, 1 mg/ml, Abcam, Cambridge, UK, 1: 200), and synaptophysin (ab14692, 0.65 mg/ml, Abcam, 1: 200). […]

[2] = oral glutamine, long-term memory, compared to the normal mouse

NC(=O)CC[C@H](N)C(=O)O [glutamine]
plasma corticosterone level (corticosterone): statistically significant decrease
discrimination index (DI) in OLT [1]: higher DI
discrimination index (DI) in ORT [1]: higher DI
spontaneous alternation of Y-maze test (normal mouse; 2 hours later glutamine oral administration, short-term memory): no difference
cognitive ability in OLT (normal mouse; [2]): more enhanced cognitive ability
cognitive ability in ORT (normal mouse; [2]): more enhanced cognitive ability
synaptic puncta (co-localization of PSD-95 and synaptophysin) (PSD-95 and synaptophysin): significantly increased
